Patent US9044015B2, “Heterocyclic compounds as pesticides” (Bayer CropScience AG, priority 2010, dated 2015)
Counter-ions that a name gives are not always drawn.

Experiment: Determination of the log P values (formic acid method)
Procedure: 1) Description of Method for Determination of the log P Values (Formic Aid Method)
Eluents for determination in the acidic range (pH 3.4):
Eluent A: acetonitrile+1 ml of formic acid/liter. Eluent B: water+0.9 ml of formic acid/liter.
The lambda max values were determined in the maxima of the chromatographic signals using the UV spectra from 200 nm to 400 nm.

[1] = reverse-phase C18 HPLC column, pH 3.4, log P (HCOOH), preparation examples, HPLC-MS
[2] = reverse-phase C18 HPLC column, pH 3.4, logP (HCOOH), intermediates tables, HPLC reverse-phase C18, acidic range pH 3.4, 55° C.

Row | SMILES | chromatographic logP [1] | chromatographic logP (pH 3.4, log P (HCOOH)) | chromatographic logP [2]
1 | Brc1cnn(-c2cccnc2)c1 [3-(4-Bromopyrazol-1-yl)pyridine] | 1.56 |  | 
2 | Cc1nc(-c2cncc(F)c2)sc1-c1cc(C(=O)O)n(C)n1 [3-[2-(5-Fluoropyridin-3-yl)-4-methyl-1,3-thiazol-5-yl]-1-methyl-1H-pyrazole-5-carboxylic acid] | 2.05 |  | 
3 | CC1(C)OB(c2cnn(-c3cccnc3)c2)OC1(C)C [3-[4-(4,4,5,5-Tetramethyl-[1,3,2]dioxaborolan-2-yl)pyrazol-1-yl]pyridine] |  | 2.19 | 
4 | Nc1cccc(-c2cnn(-c3cccnc3)c2)n1 [6-[1-(Pyridin-3-yl)-1H-pyrazol-4-yl]pyridine-2-amine] | 0.3 |  | 
5 | N#Cc1cccc(-c2cnc(-c3cncc(F)c3)s2)n1 [6-[2-(5-Fluoropyridin-3-yl)-1,3-thiazol-5-yl]pyridine-2-carbonitrile] | 2.51 |  | 
6 | O=C(O)c1cccc(-c2cnc(-c3cncc(F)c3)s2)n1 [6-[2-(5-Fluoropyridin-3-yl)-1,3-thiazol-5-yl]pyridine-2-carboxylic acid] | 1.72 |  | 
7 | CS(=O)(=O)NC(=O)c1cccc(-c2cnn(-c3cncc(F)c3)c2)n1 [Compound 4, 6-[1-(5-Fluoropyridin-3-yl)-1H-pyrazol-4-yl]-N-(methylsulphonyl)pyridine-2-carboxamide] | 1.98 |  | 
8 | N=C(N)c1cccc(-c2cnc(-c3cncc(F)c3)s2)n1 [Compound 79, 6-[2-(5-Fluoropyridin-3-yl)-1,3-thiazol-5-yl]pyridine-2-carboxamide amide hydrochloride (1:1)] | 0.71 |  | 
9 | CCOC(=O)c1cc(-c2sc(-c3cncc(F)c3)nc2C)nn1C [Ethyl 3-[2-(5-fluoropyridin-3-yl)-4-methyl-1,3-thiazol-5-yl]-1-methyl-1H-pyrazole-5-carboxylate] |  | 3.7 | 
10 | CCOC(=O)C(=O)CC(=O)c1sc(-c2cncc(F)c2)nc1C [Ethyl 4-[2-(5-fluoropyridin-3-yl)-4-methyl-1,3-thiazol-5-yl]-2,4-dioxobutanoate] |  | 3.37 | 
11 | COC(=O)c1cccc(-c2cnc(-c3cncc(F)c3)s2)n1 [Methyl 6-[2-(5-fluoropyridin-3-yl)-1,3-thiazol-5-yl]pyridine-2-carboxylate] |  | 2.37 | 
12 | CS(=O)(=O)NC(=O)c1cccc(-c2cn[nH]c2)n1 [N-(Methylsulphonyl)-6-(1H-pyrazol-4-yl)pyridine-2-carboxamide] | 0.91 |  | 
13 | O=C(NS(=O)(=O)Cc1ccccc1)c1cccc(Br)n1 [XII-1] |  |  | 2.4
14 | CN(C)S(=O)(=O)NC(=O)c1cccc(Br)n1 [XII-2] |  |  | 1.82
15 | CS(=O)(=O)NC(=O)c1cccc(Cl)n1 [XII-3] |  |  | 1.15
16 | CS(=O)(=O)NC(=O)c1cccc(Br)n1 [XII-4, 6-Bromo-N-(methylsulphonyl)pyridine-2-carboxamide] | 1.21 |  | 1.28
17 | CCS(=O)(=O)NC(=O)c1cccc(Br)n1 [XII-5] |  |  | 1.54
18 | O=C(NS(=O)(=O)c1ccccc1)c1cccc(Br)n1 [XII-6] |  |  | 2.32
19 | O=C(NS(=O)(=O)C1CC1)c1cccc(Br)n1 [XII-7] |  |  | 1.7
20 | Fc1cncc(-c2nccs2)c1 [XIII-1, 3-Fluoro-5-(1,3-thiazol-2-yl)pyridine] | 1.48 |  | 1.51
21 | Clc1cncc(-c2nccs2)c1 [XIII-2] |  |  | 1.94
22 | c1ncc(-c2nccs2)cn1 [XIII-3] |  |  | 0.69
23 | N#Cc1cncc(-c2nccs2)c1 [XIII-4] |  |  | 1.34
24 | CC(=O)NS(=O)(=O)c1cccc(Br)n1 [XIV-2, N-[(6-Bromopyridin-2-yl)sulphonyl]acetamide] | 0.95 |  | 0.95
25 | CS(=O)(=O)NC(=O)c1csc(Br)n1 [XV-1, 2-Bromo-N-(methylsulphonyl)-1,3-thiazole-4-carboxamide] | 0.83 |  | 0.82
